US10613104B2, “Assay to determine anticoagulants in blood or blood plasma” (ZAFENA AB, priority 2014, dated 2020)

Tested on: prothrombin time (PT) of normal plasma NKP
Test: Three wet-chemistry Owren PT methods (Simple Simon PT; 20, 10, 5 μL sample in 200 μL reagent) on normal plasma NKP with added anticoagulant
Assay type: biochemical
Method: Experimental work was performed with the commercially available ambient room temperature coagulation instrument, Simple Simon P T Zafena A B, Linköping, Sweden, with functions described in EP 1 636 595 B2. One instrument or reader was used for each PT-method. Alternatively, the same instrument could be used for all PT-methods.
The three instruments were used together standing next to one another on a laboratory bench in thermal equilibrium with the ambient room temperature of the laboratory.
The ambient room temperature in the laboratory where the work was done varied between 21° C. and 26° C.
The PT-reagent was the one delivered together with lot N223M of the Simple Simon PT product, a reagent of Owren-type that thus contains effective amounts of thromboplastin, fibrinogen and FV (the thromboplastin of rabbit brain origin and the fibrinogen and the FV of bovine blood plasma origin). Other Owren type reagents could also be used.
The reagent was in portions of 200 μL to which sample, citrated blood or citrated blood plasma, was added and mixed. The addition was by an end-to-end plastic capillary mounted at one end of a tubular body with a displacement mechanism in the other end, this to allow convenient mixing of sample and reagent. Such Mixxocaps with 10 μL capillaries are supplied with the Simple Simon PT product. To perform the experiments described, some Mixxocaps were fitted with 20 μL capillaries, or 5 μL capillaries instead of the 10 μL capillaries with which they were supplied by the manufacturer.
The ratios between the volume of blood or blood plasma to the volume of liquid reagent used in the experiments were 1:11, 1:21 and 1:41. Other ratios lying within the range of 1:5 and 1:100 or within the range of 1:2 and 1:200 could be used.
Anticoagulated normal plasma was the NKP product GHI-163 lot 10188, MediRox AB, Nyköping, Sweden.
It was further relevant that all three PT-methods were calibrated, according to the invention, to show INR 1.000 for unadulterated NKP, and INR 1.357 for the NKP 1:2. All primary INR values, the results that appeared on the instrument screens (one instrument or reader was used for each PT-method), were therefore transformed to the corrected/calibrated INRc by the formula A*INRexp(B) where a and b were selected to given NKP and NKP 1:2 their desired values, 1.000 and 1.357, respectively. The INR-value of the NKP 1:2 was calculated by the formula of Lindahl et al for the INR of corresponding to PT-activity of 50% (half of the 100% that equates to INR 1.000). Above the INR calibrated columns (INRc) there is an upper number and a lower number, these are the above mentioned A and B, respectively.
As deemed relevant the upper number is selected to make NKP 1:2 to show INRc 1.357.
Clinical levels of interest range from 50 to 1000 μg/L in blood plasma.
In the selected calibration INR 1.000 and INR 1.357 were assigned to NKP and NKP 1:2, respectively, which was the same relevant calibration as selected in Examples 1 and 3 above.

[1] = dabigatran 52 μg/L in NKP plasma
[2] = dabigatran 157 μg/L in NKP plasma
[3] = dabigatran 236 μg/L in NKP plasma
[4] = dabigatran 355 μg/L in NKP plasma
[5] = dabigatran 533 μg/L in NKP plasma
[6] = dabigatran 800 μg/L in NKP plasma
[7] = dabigatran 1000 μg/L in NKP plasma

Substance: dabigatran
- INR 10 μL sample [1]: 1.09
- INR 20 μL sample [1]: 1.16
- INRc 5 μL sample [1]: 1.01
- INRc 10 μL sample [1]: 1.03
- INRc 20 μL sample [1]: 1.16
- INRo [1]: 0.98
- ΔINRc 10 μL − 5 μL [1]: 0.03
- ΔINRc 20 μL − 5 μL [1]: 0.15
- INR 10 μL sample [2]: 1.19
- INR 20 μL sample [2]: 1.31
- INRc 5 μL sample [2]: 1.08
- INRc 10 μL sample [2]: 1.14
- INRc 20 μL sample [2]: 1.36
- INRo [2]: 1.02
- ΔINRc 10 μL − 5 μL [2]: 0.05
- ΔINRc 20 μL − 5 μL [2]: 0.28
- INR 5 μL sample [3]: 1.17
- INR 10 μL sample [3]: 1.30
- INR 20 μL sample [3]: 1.53
- INRc 5 μL sample [3]: 1.12
- INRc 10 μL sample [3]: 1.26
- INRc 20 μL sample [3]: 1.67
- INRo [3]: 0.98
- ΔINRc 10 μL − 5 μL [3]: 0.14
- ΔINRc 20 μL − 5 μL [3]: 0.55
- INR 5 μL sample [4]: 1.28
- INR 10 μL sample [4]: 1.44
- INR 20 μL sample [4]: 1.82
- INRc 5 μL sample [4]: 1.22
- INRc 10 μL sample [4]: 1.41
- INRc 20 μL sample [4]: 2.09
- INRo [4]: 1.03
- ΔINRc 10 μL − 5 μL [4]: 0.19
- ΔINRc 20 μL − 5 μL [4]: 0.87
- INR 5 μL sample [5]: 1.44
- INR 10 μL sample [5]: 1.70
- INR 20 μL sample [5]: 2.38
- INRc 5 μL sample [5]: 1.37
- INRc 10 μL sample [5]: 1.70
- INRc 20 μL sample [5]: 2.98
- ΔINRc 10 μL − 5 μL [5]: 0.33
- ΔINRc 20 μL − 5 μL [5]: 1.61
- INR 5 μL sample [6]: 1.81
- INR 10 μL sample [6]: 2.50
- INR 20 μL sample [6]: 4.22
- INRc 5 μL sample [6]: 1.72
- INRc 10 μL sample [6]: 2.62
- INRc 20 μL sample [6]: 6.36
- INRo [6]: 0.81
- ΔINRc 10 μL − 5 μL [6]: 0.91
- ΔINRc 20 μL − 5 μL [6]: 4.64
- INR 5 μL sample [7]: 2.53
- INR 10 μL sample [7]: 3.55
- INR 20 μL sample [7]: 7.03
- INRc 5 μL sample [7]: 2.39
- INRc 10 μL sample [7]: 3.89
- INRc 20 μL sample [7]: 12.47
- INRo [7]: 0.88
- ΔINRc 10 μL − 5 μL [7]: 1.51
- ΔINRc 20 μL − 5 μL [7]: 10.08
- content at which the INRc-difference (20 μL minus 5 μL) reaches 0.5 (normal plasma NKP, linear part of the graph (FIG. 8, FIG. 2)): about 200 μg/L
